Publication PMC8277899, “A novel RyR1-selective inhibitor prevents and rescues sudden death in mouse models of malignant hyperthermia and heat stroke” (Nature Communications, 2021)
Values after ≈ are worked out from the molar mass of the structure shown. Where a name gives a salt, the structure may show the parent alone.

Key:
[1] = Thermodynamic solubility in solutions for injection; settings: 25 °C; for solubility at 48 h: thermodynamic from solid
[2] = cited from earlier work
RyR1 channel = tested on: RyR1 channel; parameters: method as in PMID 31299492; settings: HEK293 cell-based assay; read-out: IC50 for inhibiting the RyR1 channel; cited from earlier work

CCCCCCCCn1cc(C(=O)O)c(=O)c2cc3c(cc21)OCO3 [Cpd1 sodium salt]
solubility at 48 h ([1]; 5% glucose aqueous solution, saline or isotonic): 351 ± 14 µg/mL | Solubility ([1]; Normal saline (0.9% NaCl), 48 h): 849 ± 58 (4) µg/mL | solubility at 48 h ([1]; pure water, water): 1360 ± 220 µg/mL

O=C1CN(/N=C/c2ccc(-c3ccc([N+](=O)[O-])cc3)o2)C(O)=N1 [dantrolene]
solubility at 48 h ([1]; normal saline (0.9% NaCl), saline or isotonic): 25.7 ± 2.1 µg/mL (≈ 81.8 µM) | plasma half-life (t1/2) [2]: 12 h | plasma half-life ([2]; in humans after intravenous injection): 10 to 12 h

CCn1cc(C(=O)O)c(=O)c2cc3c(cc21)OCO3 [oxolinic acid, reference compound]
IC50 (RyR1 channel): 810 nM
